The test system of one data set is MDA-MB-468. Briefly: Growth inhibition of human MDA-MB-468 cells after 5 days by SRB assay. The class given is functional. A general note: The SRB assay estimates cell density from bound dye.
The next data set has as its system MCF7. The experiment in a line: Growth inhibition of human MCF7 cells after 5 days by SRB assay. The format is functional.
For another data set, the system named is MDA-MB-231. Briefly: Growth inhibition of human MDA-MB-231 cells after 5 days by SRB assay. The format is functional.
Another data set concerns HMEC. The experiment in a line: (§1) Growth inhibition of human HMEC cells after 5 days by SRB assay. The format is cell-based. The following applies: hmec, 120 h.
The target in another data set is T1, Cytochrome P450 1A2 (Homo sapiens, UniProt P05177).
T1 sequence (P05177 whole entry): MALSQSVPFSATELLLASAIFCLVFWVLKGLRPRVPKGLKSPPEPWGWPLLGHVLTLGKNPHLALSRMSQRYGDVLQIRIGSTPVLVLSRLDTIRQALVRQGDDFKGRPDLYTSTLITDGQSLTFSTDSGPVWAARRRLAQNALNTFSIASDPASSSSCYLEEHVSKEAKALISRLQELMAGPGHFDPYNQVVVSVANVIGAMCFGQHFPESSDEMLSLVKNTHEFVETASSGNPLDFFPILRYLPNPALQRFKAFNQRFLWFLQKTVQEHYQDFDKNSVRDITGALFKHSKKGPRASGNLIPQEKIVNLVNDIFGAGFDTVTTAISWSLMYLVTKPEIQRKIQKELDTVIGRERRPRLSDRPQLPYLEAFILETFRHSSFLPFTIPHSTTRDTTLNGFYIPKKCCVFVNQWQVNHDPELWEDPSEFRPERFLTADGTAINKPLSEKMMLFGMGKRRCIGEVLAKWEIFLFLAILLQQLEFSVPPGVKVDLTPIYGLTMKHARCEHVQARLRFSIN
The experiment in a line: Inhibition of CYP1A2 (unknown origin) by fluorescence assay. The format is ADME.

The target of a further data set is Cytochrome P450 2D6 (Homo sapiens, UniProt P10635). The experiment in a line: Inhibition of CYP2D6 (unknown origin) by fluorescence assay. The class given is ADME.
Sequence of Cytochrome P450 2D6 (P10635 whole entry): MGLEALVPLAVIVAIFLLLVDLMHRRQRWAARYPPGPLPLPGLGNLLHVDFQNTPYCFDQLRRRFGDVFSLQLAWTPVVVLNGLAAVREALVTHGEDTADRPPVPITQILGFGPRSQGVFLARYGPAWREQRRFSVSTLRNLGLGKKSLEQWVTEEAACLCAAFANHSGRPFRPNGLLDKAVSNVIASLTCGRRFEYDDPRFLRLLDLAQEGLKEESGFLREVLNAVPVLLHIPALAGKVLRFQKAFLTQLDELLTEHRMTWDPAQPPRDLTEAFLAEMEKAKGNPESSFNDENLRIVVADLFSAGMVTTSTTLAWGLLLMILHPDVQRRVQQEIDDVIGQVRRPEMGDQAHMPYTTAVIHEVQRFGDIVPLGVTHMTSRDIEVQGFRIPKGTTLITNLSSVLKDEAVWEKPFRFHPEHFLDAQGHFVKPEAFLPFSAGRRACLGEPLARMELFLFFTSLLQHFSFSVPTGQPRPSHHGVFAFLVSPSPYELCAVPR
The target in data set [1] is T2, Cytochrome P450 3A4 (Homo sapiens, UniProt P08684). Briefly: Inhibition of CYP3A4 (unknown origin) using DBF as substrate by fluorescence assay.
T2 sequence (P08684 whole entry): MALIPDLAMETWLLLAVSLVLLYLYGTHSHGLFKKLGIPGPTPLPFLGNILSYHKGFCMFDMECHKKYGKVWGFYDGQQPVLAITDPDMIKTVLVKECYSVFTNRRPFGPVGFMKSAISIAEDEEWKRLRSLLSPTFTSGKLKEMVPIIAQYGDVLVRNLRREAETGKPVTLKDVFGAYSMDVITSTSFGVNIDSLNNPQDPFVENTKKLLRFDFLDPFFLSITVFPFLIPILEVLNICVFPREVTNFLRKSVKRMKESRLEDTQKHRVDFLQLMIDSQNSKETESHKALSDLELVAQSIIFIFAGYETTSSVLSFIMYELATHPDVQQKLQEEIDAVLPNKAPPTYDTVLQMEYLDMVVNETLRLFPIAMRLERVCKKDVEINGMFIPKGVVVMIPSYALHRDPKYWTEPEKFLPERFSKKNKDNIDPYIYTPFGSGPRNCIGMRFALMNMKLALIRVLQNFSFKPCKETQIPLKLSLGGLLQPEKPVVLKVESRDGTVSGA
Data set [2] has as its target T2, Cytochrome P450 3A4. The experiment in a line: Inhibition of CYP3A4 (unknown origin) using BFC as substrate by fluorescence assay.
Data set [3] is described as follows: Half life in human liver microsomes. The following applies: liver microsomes.
Data set [4] can be described thus: Cmax in athymic CD1 nude mouse at 25 mg/kg, po by LC/MS/MS analysis. The class given is ADME, organism-based. Details: dose 25 mg/kg, route oral; call rule not given here. The following applies: in vivo.
Data set [5] can be described thus: AUC in athymic CD1 nude mouse at 25 mg/kg, po by LC/MS/MS analysis. The class given is ADME, organism-based. Further details: dose 25 mg/kg, route oral. The following applies: plasma.
A further data set relates to HCC1954. The experiment in a line: Growth inhibition of human HCC1954 cells after 5 days by SRB assay. The format is functional. The following applies: Homo sapiens, HCC1954, 120 h.
Data set [6] is described as follows: as §1. The following applies: HMEC cells. The format is cell-based.
Another data set deals with Cytochrome P450 2C9 (Homo sapiens, UniProt P11712). Briefly: Inhibition of CYP2C9 (unknown origin) by fluorescence assay.
Sequence of Cytochrome P450 2C9 (P11712 whole entry): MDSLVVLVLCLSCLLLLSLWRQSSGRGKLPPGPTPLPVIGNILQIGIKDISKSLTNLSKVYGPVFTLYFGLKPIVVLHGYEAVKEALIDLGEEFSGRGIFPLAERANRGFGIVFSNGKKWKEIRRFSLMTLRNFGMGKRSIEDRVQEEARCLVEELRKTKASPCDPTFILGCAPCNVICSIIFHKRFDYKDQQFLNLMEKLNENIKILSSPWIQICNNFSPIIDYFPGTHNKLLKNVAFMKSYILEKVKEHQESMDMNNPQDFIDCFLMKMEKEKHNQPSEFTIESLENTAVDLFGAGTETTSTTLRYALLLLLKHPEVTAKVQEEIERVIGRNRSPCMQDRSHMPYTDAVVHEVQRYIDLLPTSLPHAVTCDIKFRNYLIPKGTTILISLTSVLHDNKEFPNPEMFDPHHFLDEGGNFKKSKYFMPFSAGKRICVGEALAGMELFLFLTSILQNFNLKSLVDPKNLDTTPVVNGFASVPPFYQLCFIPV
The target in another data set is Cytochrome P450 2C19 (Homo sapiens, UniProt P33261). The experiment in a line: Inhibition of CYP2C19 (unknown origin) by fluorescence assay.
Sequence of Cytochrome P450 2C19 (P33261 whole entry): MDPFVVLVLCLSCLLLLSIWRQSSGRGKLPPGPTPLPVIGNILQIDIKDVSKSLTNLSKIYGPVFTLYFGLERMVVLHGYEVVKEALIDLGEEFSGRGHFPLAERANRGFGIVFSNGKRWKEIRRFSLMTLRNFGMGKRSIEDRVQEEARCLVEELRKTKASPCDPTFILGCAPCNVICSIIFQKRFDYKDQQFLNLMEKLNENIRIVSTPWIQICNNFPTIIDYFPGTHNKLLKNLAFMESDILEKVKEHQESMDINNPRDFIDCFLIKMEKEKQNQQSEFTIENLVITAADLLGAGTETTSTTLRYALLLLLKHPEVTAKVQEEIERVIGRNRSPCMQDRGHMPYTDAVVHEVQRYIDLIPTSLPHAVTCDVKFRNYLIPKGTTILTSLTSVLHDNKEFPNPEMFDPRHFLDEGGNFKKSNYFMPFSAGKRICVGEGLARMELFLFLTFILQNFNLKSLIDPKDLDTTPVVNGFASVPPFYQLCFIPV
Data set [7] is described as follows: Half life in mouse liver microsomes. The following applies: liver microsomes.
Data set [8] can be described thus: Half life in rat liver microsomes. The following applies: liver microsomes.
Data set [9] in a line: Half life in dog liver microsomes. The following applies: liver microsomes. On the technique in general: Liver microsomes are vesicles of endoplasmic reticulum, rich in cytochrome P450 enzymes.
The test system of the next data set is Rattus norvegicus. The experiment in a line: Clearance in Sprague-Dawley rat at 1 mg/kg, iv. The class given is ADME, organism-based. Further details: dose 1 mg/kg, route intravenous. The following applies: in vivo.
Data set [10] is described as follows: Half life in Sprague-Dawley rat at 1 mg/kg, iv. The class given is ADME, organism-based. Details: dose 1 mg/kg, route intravenous. The following applies: in vivo.
A short description of data set [11]: AUC(infinity) in Sprague-Dawley rat at 1 mg/kg, iv. The format is ADME, organism-based. Further details: time infinity, dose 1 mg/kg, route intravenous. The following applies: plasma.
Data set [12] is described as follows: AUC(infinity) in Sprague-Dawley rat at 5 mg/kg, po. The following applies: plasma. The format is ADME, organism-based. Further details: dose 5 mg/kg, route oral, time infinity.
Data set [13] can be described thus: Oral bioavailability in Sprague-Dawley rat at 5 mg/kg. The class given is ADME, organism-based. The following applies: in vivo.
The subject of another data set is Canis familiaris. The experiment in a line: Clearance in beagle dog at 1 mg/kg, iv. The class given is ADME, organism-based, Canis lupus familiaris. Details: dose 1 mg/kg, route intravenous. The following applies: in vivo.
Data set [14] can be described thus: Half life in beagle dog at 1 mg/kg, iv. The following applies: in vivo. Further details: dose 1 mg/kg, route intravenous. The format is ADME, organism-based, Canis lupus familiaris.
Data set [15] is described as follows: AUC(infinity) in beagle dog at 1 mg/kg, iv. The format is ADME, organism-based, Canis lupus familiaris. Further details: time infinity, dose 1 mg/kg, route intravenous. The following applies: plasma.
Data set [16] can be described thus: AUC(infinity) in beagle dog at 5 mg/kg, po. Details: time infinity, dose 5 mg/kg, route oral. The class given is ADME, organism-based, Canis lupus familiaris. The following applies: plasma.
Data set [17] can be described thus: Oral bioavailability in beagle dog at 5 mg/kg. The class given is ADME, organism-based, Canis lupus familiaris. The following applies: in vivo.

This note sets out measurements from ChEMBL document CHEMBL3407349, “The discovery of Polo-like kinase 4 inhibitors: identification of (1R,2S).2-(3-((E).4-(((cis).2,6-dimethylmorpholino)methyl)styryl). 1H.indazol-6-yl)-5'-methoxyspiro[cyclopropane-1,3'-indolin]-2'-one (CFI-400945) as a potent, orally active antitumor agent” (J Med Chem, 2015).

Structures are written as SMILES.

The term GI50 denotes the concentration that inhibits growth by half. The term IC50 denotes the concentration that gives 50% inhibition. The low end stands for greater potency in that assay, the high end for weaker potency in that assay. A word on the half-life: it is how long it takes for the measured level to halve. The Cmax is the highest concentration seen after dosing. Broadly, the AUC is concentration integrated over time. Low readings indicate low exposure, high ones high exposure. The clearance is the rate of elimination divided by the concentration. Higher therefore signals a high capacity for elimination. As usually defined, the AUC(0-inf) is total exposure, with the tail of the curve extrapolated. Lower therefore signals low exposure. For orientation: bioavailability means dose-corrected exposure relative to a reference, in per cent. A low value points to poor availability.

`CN(C)Cc1ccc(/C=C/c2n[nH]c3cc([C@@H]4C[C@@]45C(=O)Nc4ccccc45)ccc23)cc1`: the GI50 is less than 1 nM in the data set on MDA-MB-468, 250 nM in the data set on MCF7, 820 nM in the data set with MDA-MB-231 and 19000 nM in the data set with HMEC. Moreover, the “inhibition (INH)” value on Cytochrome P450 1A2 and at Cytochrome P450 2D6 was “Not Active” each time. Besides, the values for the IC50 against Cytochrome P450 3A4 [1] and on Cytochrome P450 3A4 [2] were 10000 nM and 5000 nM, respectively. Further, the half-life in data set [3] is greater than 60 min. Besides, the peak level in data set [4] (Cmax) was 110 ng/mL. Moreover, in [5], the AUC amounted to 260 ng·h/mL.

Take `O=C1Nc2ccccc2[C@]12C[C@H]2c1ccc2c(/C=C/c3ccc(CN4CCOCC4)cc3)n[nH]c2c1`: the concentration for 50% growth inhibition (GI50) in the data set with MDA-MB-468 (Homo sapiens, MDA-MB-468, 120 h) was 4.2 nM; with MCF7 (Homo sapiens, MCF7, 120 h), 800 nM; in the data set on HCC1954, less than 1 nM; in the data set on MDA-MB-231 (Homo sapiens, MDA-MB-231, 120 h), 5000 nM. This compound also displayed a GI50 at 120 h in data set [6] of 50000 nM. The “inhibition (INH)” value on Cytochrome P450 1A2 and on Cytochrome P450 2D6 was “Not Active” throughout. Besides, the IC50 on Cytochrome P450 2C9 came out at 700 nM; at Cytochrome P450 2C19 it was 800 nM; against Cytochrome P450 3A4 [1] it was 2700 nM; at Cytochrome P450 3A4 [2], 6300 nM. The half-life in [7] was 15 min; in data set [8], 7.3 min; in data set [9] it was 4.7 min; in [3], 45 min; in data set [10] it was 84 min; in data set [14] it was 192 min. Further, the Cmax in [4] is 3500 ng/mL. In [5], this compound yielded an AUC of 10000 ng·h/mL. In addition, the values for the clearance in the data set with Rattus norvegicus and in the data set with Canis familiaris were 53.3 mL/min/kg and 33.3 mL/min/kg, respectively. Moreover, the AUC(0-inf) in data set [11] came out at 312 ng·h/mL; in [12], 478 ng·h/mL; in [15], 515 ng·h/mL; in data set [16], 250 ng·h/mL. For the same compound, the bioavailability in [13] came to 31%; in [17], 9.7%.
